Reference: patent US20170088520A1, “DEUBIQUITINASE INHIBITORS” (PharmAkea, Inc., priority 2014, published 2017)

Columns and labels:
Format in all cases: cell-based
[1] = test system: Mcl-1 expression in cells (NCI-H929, Z138, MM.1S, A-375); assay: Analysis of Mcl-1 expression by Western blotting; settings: compound tested at 5 μM; Western blot
Experimental: (§1) Example B-2: Analysis of Md-1 Expression and PARP Cleavage
(§2) The ability of test compounds to decrease expression of the tumor promoting protein, Mcl-1, and to induce the inactivation/cleavage of the PARP protein is evaluated in cells (NCI-H929, Z138, MM.1S, A-375) by Western blotting. Cells are plated and treated as described in the HA-Ub-VS cell labeling assay (see above). A portion of the cleared lysate (15-50 μl) is run on an SDS-polyacrylamide gel to separate proteins and then transferred to nitrocellulose. After transfer to nitrocellulose, the proteins are detected by probing the blot with anti-Mcl-1 and anti-PARP antibodies followed by secondary antibodies coupled to IRdye 800 and IRdye 680 and visualization and quantitation using a LiCor Odyssey machine. Activity of the test compound is identified as a significant decrease in Mcl-1 expression relative to the vehicle treated cells and to the appearance of a cleaved fragment of PARP relative to the vehicle-treated cells.
(§3) The following compounds were tested in the above assays at 5 μM: […]

[2] = biological target: T1, DUB activity in cells (NCI-H929, Z138, MM.1S, A375) (Homo sapiens, UniProt Q93008); assay: HA-Ubiquitin-Vinylsulfone (HA-Ub-VS) cell labeling assay; settings: compound tested at 5 μM; HA-Ub-VS labeling of USP9x in cells
T1 construct: endogenous in cells; host or cells: NCI-H929, Z138, MM.1S, A375
Experimental: Example B-1: HA-Ubiqutin-Vinylsulfone (HA-Ub-VS) Cell Labeling
Inhibitition of DUB activity is measured in cells (NCI-H929, Z138, MM.1S, A375) using a hemaglutinin-ubiquitin-vinylsulfone (HA-Ub-VS) labeling assay. Briefly, 1-2×10^6 cells are plated in 12-well plates in 1 ml complete growth media and 250 μl of test compound in 0.5% dimethylsulfoxide (or DMSO control) is added to each well. Plates are incubated at 37° C., 5% CO2 for 2-6 hours before cells are harvested into eppendorf tubes, washed once in PBS and resuspended in 100 μl cold lysis buffer (50 mM Tris pH 8, 150 mM NaCl, 0.5% NP-40, 2 mM phenylmethylsulfonyl fluoride and complete protease inhibitor tablet). Resupended cells are frozen on dry ice, then thawed and incubated on ice for 15 minutes. Tubes are centrifuged for 10 minutes at 14,000 rpm at 4° C. and the cleared supernatants transferred to clean tubes. […] The samples are incubated 15-60 min at 37° C. before the addition of SDS gel loading buffer. Proteins are separated by SDS-PAGE, transferred to nitrocellulose and the blot probed with anti-HA antibody and anti-β-actin antibodies. The HA and β-actin antibodies are detected using secondary antibodies coupled to IRdye 800 or IRdye 680 and visualized and quantitated using the LiCor Odyssey machine.
as §3

[3] = test system: PARP cleavage in cells (NCI-H929, Z138, MM.1S, A-375); assay: Analysis of PARP cleavage by Western blotting; settings: compound tested at 5 μM; Western blot
Experimental: as §1, §2, §3

T1 sequence (Q93008 whole entry): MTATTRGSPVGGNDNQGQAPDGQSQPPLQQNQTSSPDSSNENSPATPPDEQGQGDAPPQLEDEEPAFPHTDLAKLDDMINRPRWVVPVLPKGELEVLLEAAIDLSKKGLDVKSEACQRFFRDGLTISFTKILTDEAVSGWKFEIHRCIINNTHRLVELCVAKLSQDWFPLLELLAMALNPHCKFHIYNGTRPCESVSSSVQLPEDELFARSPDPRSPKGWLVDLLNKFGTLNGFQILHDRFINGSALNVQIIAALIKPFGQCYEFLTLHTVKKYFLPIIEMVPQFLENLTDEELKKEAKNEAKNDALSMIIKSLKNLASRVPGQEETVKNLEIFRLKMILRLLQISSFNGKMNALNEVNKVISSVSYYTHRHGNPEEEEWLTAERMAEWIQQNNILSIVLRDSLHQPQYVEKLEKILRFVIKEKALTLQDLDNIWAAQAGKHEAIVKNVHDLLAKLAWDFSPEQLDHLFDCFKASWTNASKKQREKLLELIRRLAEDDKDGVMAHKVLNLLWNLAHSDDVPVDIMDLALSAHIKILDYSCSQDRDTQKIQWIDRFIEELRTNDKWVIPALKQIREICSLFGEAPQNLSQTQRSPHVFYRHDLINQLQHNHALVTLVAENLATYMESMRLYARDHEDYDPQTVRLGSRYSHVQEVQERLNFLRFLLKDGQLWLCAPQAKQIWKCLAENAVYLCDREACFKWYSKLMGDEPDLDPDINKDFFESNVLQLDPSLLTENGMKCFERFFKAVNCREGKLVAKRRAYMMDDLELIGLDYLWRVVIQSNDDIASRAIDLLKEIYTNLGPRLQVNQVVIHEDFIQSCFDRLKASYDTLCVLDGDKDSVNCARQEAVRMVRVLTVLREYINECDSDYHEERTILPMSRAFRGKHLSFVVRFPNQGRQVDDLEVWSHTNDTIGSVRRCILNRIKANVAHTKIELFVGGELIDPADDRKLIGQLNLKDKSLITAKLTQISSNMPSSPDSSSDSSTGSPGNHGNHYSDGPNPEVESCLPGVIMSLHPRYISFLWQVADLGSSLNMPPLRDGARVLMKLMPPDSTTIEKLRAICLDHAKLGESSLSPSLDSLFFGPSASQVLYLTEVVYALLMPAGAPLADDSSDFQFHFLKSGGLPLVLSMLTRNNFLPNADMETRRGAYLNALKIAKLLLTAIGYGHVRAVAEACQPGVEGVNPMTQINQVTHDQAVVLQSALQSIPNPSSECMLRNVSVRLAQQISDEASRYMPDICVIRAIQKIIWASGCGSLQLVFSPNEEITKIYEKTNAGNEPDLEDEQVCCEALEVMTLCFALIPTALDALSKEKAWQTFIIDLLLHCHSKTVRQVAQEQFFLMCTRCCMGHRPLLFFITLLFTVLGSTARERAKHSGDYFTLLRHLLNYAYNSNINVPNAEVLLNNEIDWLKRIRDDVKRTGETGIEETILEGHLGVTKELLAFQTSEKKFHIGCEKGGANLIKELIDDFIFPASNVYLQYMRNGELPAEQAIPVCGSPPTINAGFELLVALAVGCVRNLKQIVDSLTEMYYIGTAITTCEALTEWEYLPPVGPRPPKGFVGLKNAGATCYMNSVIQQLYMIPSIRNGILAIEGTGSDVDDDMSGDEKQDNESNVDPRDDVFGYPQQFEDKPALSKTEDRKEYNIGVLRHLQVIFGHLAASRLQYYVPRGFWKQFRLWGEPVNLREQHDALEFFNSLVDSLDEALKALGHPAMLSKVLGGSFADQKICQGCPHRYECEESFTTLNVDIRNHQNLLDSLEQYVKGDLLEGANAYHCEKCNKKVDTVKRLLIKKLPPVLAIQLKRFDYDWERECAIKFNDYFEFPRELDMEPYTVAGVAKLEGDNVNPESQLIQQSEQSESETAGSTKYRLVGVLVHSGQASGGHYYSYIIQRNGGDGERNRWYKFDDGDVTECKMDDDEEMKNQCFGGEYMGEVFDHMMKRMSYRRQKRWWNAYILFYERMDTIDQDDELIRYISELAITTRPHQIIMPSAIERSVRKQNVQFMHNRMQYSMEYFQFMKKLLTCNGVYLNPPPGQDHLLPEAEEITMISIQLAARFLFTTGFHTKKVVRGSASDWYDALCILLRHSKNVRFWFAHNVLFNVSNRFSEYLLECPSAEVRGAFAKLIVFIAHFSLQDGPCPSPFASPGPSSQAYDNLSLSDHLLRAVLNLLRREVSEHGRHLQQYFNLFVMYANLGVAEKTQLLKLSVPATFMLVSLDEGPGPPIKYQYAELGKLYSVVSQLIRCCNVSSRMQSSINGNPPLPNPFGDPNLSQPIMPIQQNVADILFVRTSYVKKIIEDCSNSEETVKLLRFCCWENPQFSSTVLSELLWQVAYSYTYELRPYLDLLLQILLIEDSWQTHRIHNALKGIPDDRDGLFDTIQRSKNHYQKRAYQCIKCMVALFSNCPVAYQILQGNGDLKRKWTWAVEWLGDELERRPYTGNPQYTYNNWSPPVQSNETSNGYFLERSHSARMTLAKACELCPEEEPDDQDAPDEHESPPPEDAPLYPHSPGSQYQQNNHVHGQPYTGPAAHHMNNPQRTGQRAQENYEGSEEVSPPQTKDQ

N#C/C(=C\c1cccc(Br)n1)C(=O)NC1(c2ccc(-c3cccc(C(=O)NS(=O)(=O)c4ccccc4)c3)cc2)CCCC1 [Compound 94, (E)-4′-(1-(3-(6-bromopyridin-2-yl)-2-cyanoacrylamido)cyclopentyl)-N-(phenylsulfonyl)-[1,1′-biphenyl]-3-carboxamide]
inhibition at 5 µM [1]: 25 to 50%
inhibition at 5 µM [2]: < 25%
PARP cleavage % Inhibition [3]: A (A is ≧75% inhibition)

N#C/C(=C\c1ncc(Br)cc1Br)C(=O)NC1(c2ccc(Cl)cc2)CCCC1 [Compound 22, (E)-N-(1-(4-Chlorophenyl)cyclopentyl)-2-cyano-3-(3,5-dibromopyridin-2-yl)acrylamide]
inhibition at 5 µM [1]: ≥ 75%
inhibition at 5 µM [2]: ≥ 75%
PARP cleavage % Inhibition [3]: A (A is ≧75% inhibition)

COC(=O)c1cccc(-c2ccc(C3(NC(=O)/C(C#N)=C/c4ncc(Br)cc4Br)CCCC3)cc2)c1 [Compound 38, (E)-methyl 4′-(1-(2-cyano-3-(3,5-dibromopyridin-2-yl)acrylamido)cyclopentyl)-[1,1′-biphenyl]-3-carboxylate]
inhibition at 5 µM [1]: 50 to 75%
inhibition at 5 µM [2]: 50 to 75%
PARP cleavage % Inhibition [3]: A (A is ≧75% inhibition)

C=C(C)c1ccc(C2(NC(=O)/C(C#N)=C/c3ncc(Br)cc3Br)CCCC2)cc1 [Compound 63, (E)-2-cyano-3-(3,5-dibromopyridin-2-yl)-N-(1-(4-(prop-1-en-2-yl)phenyl)cyclopentyl)acrylamide]
inhibition at 5 µM [1]: ≥ 75%
inhibition at 5 µM [2]: ≥ 75%
PARP cleavage % Inhibition [3]: A (A is ≧75% inhibition)

Cc1ccc(-c2ccc(C3(NC(=O)/C(C#N)=C/c4cccc(Br)n4)CCCC3)cc2)cc1CC(=O)O [Compound 98, (E)-2-(4′-(1-(3-(6-bromopyridin-2-yl)-2-cyanoacrylamido)cyclopentyl)-4-methyl-[1,1′-biphenyl]-3-yl)acetic acid]
inhibition at 5 µM [1]: < 25%
inhibition at 5 µM [2]: < 25%
PARP cleavage % Inhibition [3]: D (D is <25% inhibition)

N#C/C(=C\c1ncc(Br)cc1Br)C(=O)NC1(c2ccccc2)CCCC1 [Compound 4, (E)-3-(3,5-Dibromopyridin-2-yl)-2-cyano-N-(1-phenylcyclopentyl)acrylamide]
inhibition at 5 µM [1]: ≥ 75%
inhibition at 5 µM [2]: ≥ 75%
PARP cleavage % Inhibition [3]: A (A is ≧75% inhibition)

N#C/C(=C\c1cccc(C2CC2)n1)C(=O)NC1(c2ccc(-c3cccc(C(=O)O)c3)cc2)CCCC1 [Compound 82, (E)-4′-(1-(2-cyano-3-(6-cyclopropylpyridin-2-yl)acrylamido)cyclopentyl)-[1,1′-biphenyl]-3-carboxylic acid]
inhibition at 5 µM [1]: 50 to 75%
inhibition at 5 µM [2]: < 25%
PARP cleavage % Inhibition [3]: A (A is ≧75% inhibition)

CC(C)(C)OC(=O)c1cc(-c2cccc(/C=C(\C#N)C(=O)NC3(c4ccccc4)CCCC3)n2)cnc1Cl [Compound 49]
inhibition at 5 µM [1]: ≥ 75%
inhibition at 5 µM [2]: ≥ 75%
PARP cleavage % Inhibition [3]: A (A is ≧75% inhibition)

N#C/C(=C\c1cccc(Br)n1)C(=O)NC1(c2ccnc(Cl)c2)CCCC1 [Compound 3-6, (E)-3-(6-bromopyridin-2-yl)-N-(1-(2-chloropyridin-4-yl)cyclopentyl)-2-cyanoacrylamide]
inhibition at 5 µM [1]: 50 to 75%
inhibition at 5 µM [2]: 50 to 75%
PARP cleavage % Inhibition [3]: A (A is ≧75% inhibition)

N#C/C(=C\c1cccc(Br)n1)C(=O)NC1(c2ccncc2)CCCC1 [Compound 3-2, (E)-3-(6-bromopyridin-2-yl)-2-cyano-N-(1-(pyridin-4-yl)cyclopentyl) acrylamide]
inhibition at 5 µM [1]: 50 to 75%
inhibition at 5 µM [2]: 25 to 50%
PARP cleavage % Inhibition [3]: A (A is ≧75% inhibition)

N#C/C(=C\c1ncc(Br)cc1Br)C(=O)NC1(c2cccc(Cl)c2)CCCC1 [Compound 20, (E)-N-(1-(3-Chlorophenyl)cyclopentyl)-2-cyano-3-(3,5-dibromopyridin-2-yl)acrylamide]
inhibition at 5 µM [1]: ≥ 75%
inhibition at 5 µM [2]: ≥ 75%
PARP cleavage % Inhibition [3]: A (A is ≧75% inhibition)

N#C/C(=C\c1cccc(-c2ccc(N3CCCCC3)nc2)n1)C(=O)NC1(c2ccccc2)CCCC1 [Compound 65, (E)-2-cyano-N-(1-phenylcyclopentyl)-3-(6′-(piperidin-1-yl)-[2,3′-bipyridin]-6-yl)acrylamide]
inhibition at 5 µM [1]: < 25%
inhibition at 5 µM [2]: 25 to 50%
PARP cleavage % Inhibition [3]: B (B is 50% to 75% inhibition)

N#C/C(=C\c1cccc(Br)n1)C(=O)NC1(c2ccccc2)CCOC1 (stereo not drawn) [Compound 80, (E)-3-(6-bromopyridin-2-yl)-2-cyano-N-(3-phenyltetrahydrofuran-3-yl)acrylamide]
inhibition at 5 µM [1]: < 25%
inhibition at 5 µM [2]: < 25%
PARP cleavage % Inhibition [3]: D (D is <25% inhibition)

N#C/C(=C\c1ncc(Cl)cc1F)C(=O)NC1(c2ccccc2)CCCC1 [Compound 5, (E)-3-(3-Fluoro-5-chloropyridin-2-yl)-2-cyano-N-(1-phenylcyclopentyl)acrylamide]
inhibition at 5 µM [1]: ≥ 75%
inhibition at 5 µM [2]: ≥ 75%
PARP cleavage % Inhibition [3]: A (A is ≧75% inhibition)

N#C/C(=C\c1ncccc1Br)C(=O)NC1(c2ccccc2)CCCC1 [Compound 46, (E)-3-(3-bromopyridin-2-yl)-2-cyano-N-(1-phenylcyclopentyl)acrylamide]
inhibition at 5 µM [1]: 50 to 75%
inhibition at 5 µM [2]: 50 to 75%
PARP cleavage % Inhibition [3]: A (A is ≧75% inhibition)

N#C/C(=C\c1cccc(C2CC2)n1)C(=O)NC1(c2ccc(-c3ccc4[nH]ccc4c3)cc2)CCCC1 [Compound 99, (E)-N-(1-(4-(1H-indol-5-yl)phenyl)cyclopentyl)-2-cyano-3-(6-cyclopropylpyridin-2-yl)acrylamide]
inhibition at 5 µM [1]: < 25%
inhibition at 5 µM [2]: 25 to 50%
PARP cleavage % Inhibition [3]: C (C is 25% to 50% inhibition)

N#C/C(=C\c1cccc(Br)n1)C(=O)NC1(c2ccccc2)CCOCC1 [Compound 18, (E)-3-(6-Bromopyridin-2-yl)-2-cyano-N-(4-phenyltetrahydro-2H-pyran-4-yl)acrylamide]
inhibition at 5 µM [1]: 25 to 50%
inhibition at 5 µM [2]: 50 to 75%
PARP cleavage % Inhibition [3]: B (B is 50% to 75% inhibition)

N#C/C(=C\c1cccc(-c2cccnc2)n1)C(=O)NC1(c2ccccc2)CCCC1 [Compound 30, (E)-3-([2,3′-bipyridin]-6-yl)-2-cyano-N-(1-phenylcyclopentyl)acrylamide]
inhibition at 5 µM [1]: 25 to 50%
inhibition at 5 µM [2]: 25 to 50%
PARP cleavage % Inhibition [3]: A (A is ≧75% inhibition)

COc1ccc(/C=C(\C#N)C(=O)NC2(c3ccccc3)CCCC2)cc1O [Compound 14, (E)-3-(3-Hydroxy-4-methoxyphenyl)-2-cyano-N-(1-phenylcyclopentyl)acrylamide]
inhibition at 5 µM [1]: < 25%
inhibition at 5 µM [2]: < 25%
PARP cleavage % Inhibition [3]: D (D is <25% inhibition)

N#C/C(=C\c1cc(Br)ccn1)C(=O)NC1(c2ccccc2)CCCC1 [Compound 28, (E)-3-(4-bromopyridin-2-yl)-2-cyano-N-(1-phenylcyclopentyl)acrylamide]
inhibition at 5 µM [1]: < 25%
inhibition at 5 µM [2]: < 25%
PARP cleavage % Inhibition [3]: D (D is <25% inhibition)

COC(=O)c1cccc(C2(NC(=O)/C(C#N)=C/c3cccc(Br)n3)CCCC2)c1 [Compound 48, (E)-methyl 3-(1-(3-(6-bromopyridin-2-yl)-2-cyanoacrylamido)cyclopentyl)benzoate]
inhibition at 5 µM [1]: < 25%
inhibition at 5 µM [2]: 50 to 75%
PARP cleavage % Inhibition [3]: A (A is ≧75% inhibition)

N#C/C(=C\c1cccc(Br)n1)C(=O)NC1(c2ccc(-c3ccc4[nH]ncc4c3)cc2)CCCC1 [Compound 95, (E)-N-(1-(4-(1H-indazol-5-yl)phenyl)cyclopentyl)-3-(6-bromopyridin-2-yl)-2-cyanoacrylamide]
inhibition at 5 µM [1]: < 25%
inhibition at 5 µM [2]: < 25%
PARP cleavage % Inhibition [3]: D (D is <25% inhibition)

N#C/C(=C\c1nc(Cl)ccc1Br)C(=O)NC1(c2ccccc2)CCCC1 [Compound 10, (E)-3-(3-Bromo-6-chloropyridin-2-yl)-2-cyano-N-(1-phenylcyclopentyl)acrylamide]
inhibition at 5 µM [1]: ≥ 75%
inhibition at 5 µM [2]: 50 to 75%
PARP cleavage % Inhibition [3]: B (B is 50% to 75% inhibition)
